Values after ≈ are worked out from the molar mass of the structure shown.
Experiments:
Type in all cases: functional
P388 = test: Cytotoxicity against mouse P388 cells
MCF7 = test: Cytotoxicity against human MCF7 cells
SF-268 = test: Cytotoxicity against human SF268 cells
NCI-H460 = test: Cytotoxicity against human NCI-H460 cells
BXPC-3 = test: Cytotoxicity against human BxPC3 cells
KM-20L2 = test: Cytotoxicity against human KM20L2 cells
DU-145 = test: Cytotoxicity against human DU145 cells

Compound	GI50 (P388) [µg/mL]	GI50 (MCF7) [µg/mL]	GI50 (SF-268) [µg/mL]	GI50 (NCI-H460) [µg/mL]	GI50 (BXPC-3) [µg/mL]	GI50 (KM-20L2) [µg/mL]	GI50 (DU-145) [µg/mL]
CC1(C)C=Cc2cc3ccc(=O)oc3cc2O1 [XANTHYLETIN]	> 10	5.9 (≈ 25.8 µM)	11.2 (≈ 49.1 µM)	9 (≈ 39.4 µM)	5.5 (≈ 24.1 µM)	6.3 (≈ 27.6 µM)	2.9 (≈ 12.7 µM)
COc1cc(C)c2c(=O)c3c(O)cc(OC)cc3oc2c1 [LICHEXANTHONE]	> 10	4.1 (≈ 14.3 µM)	3 (≈ 10.5 µM)	7.1 (≈ 24.8 µM)	2.5 (≈ 8.73 µM)	2 (≈ 6.99 µM)	3.7 (≈ 12.9 µM)
C[C@H]1[C@@H](O)[C@@H](C)[C@@]2(O[C@@H]1C)[C@@H](C)[C@H]1OC(=O)[C@]2(C)C(=O)[C@@H]1C [PORTENTOL]	> 10	> 10	4.7 (≈ 15.1 µM)	4.7 (≈ 15.1 µM)	7 (≈ 22.6 µM)	> 10	1.3 (≈ 4.19 µM)
C=C(C)[C@@H]1CC[C@]2(C(=O)O)CC[C@]3(C)[C@H](CC[C@@H]4[C@@]5(C)CC[C@H](O)C(C)(C)[C@@H]5CC[C@]43C)[C@@H]12 [BETULINIC ACID]	> 10	1.1 (≈ 2.41 µM)	0.86 (≈ 1.88 µM)	4.7 (≈ 10.3 µM)	0.85 (≈ 1.86 µM)	3.4 (≈ 7.44 µM)	5 (≈ 10.9 µM)
CCCCCC(=O)Cc1cc(OC)cc(O)c1C(=O)Oc1cc(CC(=O)CCCCC)c(C(=O)OC)c(OC)c1 [GUSTASTATIN]	> 10	6.4 (≈ 11.5 µM)	7.9 (≈ 14.2 µM)	5.1 (≈ 9.16 µM)	> 10	> 10	5.2 (≈ 9.34 µM)

— ChEMBL document CHEMBL1151229, “Isolation and structure of gustastatin from the Brazilian nut tree Gustavia hexapetala” (2004)
